Results taken from article PMC9820345, “Metal Complexes of a 5-Nitro-8-Hydroxyquinoline-Proline Hybrid with Enhanced Water Solubility Targeting Multidrug Resistant Cancer Cells” (International Journal of Molecular Sciences, 2022).
Where two headings read alike, the source gives them in different places.

Legend:
[1] = Proton dissociation constants (pKa) of the ligand by pH-potentiometric, UV-vis and 1H NMR titrations; type: physicochemical; conditions: pH 7.4
Experimental: Characterization of the protonation/deprotonation equilibrium processes of a bioactive molecule is important to reveal its actual chemical form and charge at a given pH. The proton dissociation constant (Ka) is a key physico-chemical parameter since it has an impact on many biopharmaceutical characteristics such as lipophilicity, water solubility, and albumin binding, which in turn directly influences pharmacokinetics. The pKa values of the protonated HQNO2-L-Pro were determined by pH-potentiometric, UV-vis (Figure 1a), and ^1H NMR spectroscopic titrations (Table 1).
The pH-potentiometric measurements were carried out at 25.0 ± 0.1 °C in water in the pH range between 2.0 and 11.5 at a constant ionic strength of 0.2 M KNO3. The titrations were performed in a carbonate-free KOH solution (0.20 or 0.10 M). The exact concentrations of HNO3, HCl, and KOH solutions were always determined by pH-potentiometric titrations. An Orion 710A pH-meter equipped with a Metrohm combined electrode (type 6.0234.100) and a Metrohm 665 Dosimat burette were used for the measurements. […] The average water ionization constant (pKw) was determined as 13.76 ± 0.01, which is in good agreement with the literature data. In the case of the titrations in 30% (v/v) DMSO/H2O, the calibration of the pH-potentiometric system was conducted as in our former works. Samples were degassed by bubbling purified argon through them for about 10 min prior to the measurements, and the inert gas was also passed over the solutions during the titrations. Stoichiometry of the species and their equilibrium constants were obtained similarly to that performed in our previous works, with the use of computer program Hyperquad2013 [50].
An Agilent Cary 8454 diode array spectrophotometer (Santa Clara, CA, USA) was used to obtain UV-vis spectra in the wavelength range 200–1000 nm, while spectra were recorded for the Fe(II)-containing samples using an Avantes (Avantes B.V., Apeldoorn, The Nederlands) AvaSpec-ULS2048CL-EVO spectrometer with an AvaLight-DHc light source and FDP-7UVIR200-2-VAR transmission dip probe. The titrations for the Fe(II)-containing samples were performed in a laboratory glove box (GP(Campus), Jacomex) (O2 content ≤ 1 ppm). The path length (ℓ) was 1 cm in most cases (the actual ℓ is always indicated in the legends of the figures). The concentrations of the ligands and complexes were between 40 and 200 µM, and 0.2 M KNO3 for the organometallic complexes or 0.1 M KCl for the Fe(II/III), Cu(II), and Zn(II) complexes were used to adjust the constant ionic strength. For HSA containing samples, complex concentrations were 50 µM, and 0.5, and 2 equiv. biomolecules were added for kinetic studies, respectively. For HSA model containing samples, complex concentrations were 50 µM, and the model concentrations were 0–150 µM and 0–500 µM, respectively, and the pH was 7.4 (PBS’). Spectra were always background and baseline corrected. The computer program HypSpec was used to obtain stability constants. Hydrolysis constants of the Fe(III), Fe(II), RuCym, and RhCp* species were included in the speciation models (see Table S4 with the data taken from References).
The Bruker Avance III HD Ascend 500 Plus instrument (Billerica, MA, USA) was used for NMR studies. ^1H NMR spectroscopic measurements were carried out with a WATERGATE water suppression pulse scheme in the presence of 10% (v/v) D2O/H2O in most cases. DSS internal standard was added to samples to obtain reference peaks. ^1H NMR titrations were carried out for the ligand alone, and for the organometallic complexes in the presence of 0.2 M KNO3. With the AHA and FHA model peptides, the measurements were performed at pH 7.4 (PBS’) at 0.5 or 1 mM metal complex concentrations, and 1:1, 1:2 or 2:1 peptide-to-metal complex ratios were applied. NMR titrations were also performed for the Zn(II)-ligand systems using 0.1 M KCl ionic strength. […]

[2] = Aqueous solubility at physiological pH (S7.4); type: physicochemical; conditions: pH 7.4
MES-SA = test: In vitro cytotoxicity, MES-SA cells (fluorescent protein readout); type: cell-based, human; conditions: 144 h exposure
Excerpt: (§1) Cell lines: all cell culture reagents were obtained from Sigma-Aldrich; plasticware was purchased from Sarstedt (Nümbrecht, Germany); Human colon Colo205 (chemo-sensitive, ATCC-CCL-222) and Colo320 (Pgp/MDR1-expressing, doxorubicin-resistant, ATCC-CCL-220.1) adenocarcinoma cell lines were purchased from LGC Promochem, Teddington, UK; MES-SA and MES-SA/Dx5 uterine sarcoma cell lines were obtained from ATCC, where they were characterized by DNA fingerprinting. The expression of the Pgp efflux pump of MES-SA/Dx5 was proven by Western blot analysis in our former report, and was also reported for the Colo320 cells. The MES-SA and MES-SA/Dx5 cells used in this study were previously engineered to express the fluorescent proteins mCherry and eGFP, respectively, by lentiviral transduction.
(§2) MES-SA cell lines were maintained in DMEM, supplemented with 10% fetal bovine serum, 5 mmol/L glutamine, and 50 units/mL penicillin and streptomycin. Cells were tested and resulted negative for mycoplasma contamination with the MycoAlert mycoplasma detection Kit (Lonza Group, Basel, Switzerland). One week prior to the cytotoxicity assays, Dx5 eGFP cells were selected in 500 nM doxorubicin for one passage to ensure the overexpression of P-glycoprotein.
(§3) Cytotoxicity assays: The tested compounds were dissolved in PBS buffer to prepare 5 mM stock solutions, which were diluted in complete culture medium.
(§4) In the case of the MES-SA and MES-SA/Dx5 cells, cell suspensions of the fluorescent cell lines were pre-mixed in a 1:1 ratio and seeded in 20 µL medium in a density of 2500 cells/well (1250 cells/well each) in a 384-well plate. After an overnight incubation, a serial dilution of the compounds was added to the plate in a final volume of 60 µL. The P-gp inhibitor tariquidar was added to the cells 15 min prior to the test compounds. After 144 h of incubation, plates were measured for the fluorescent intensity of mCherry (EX/EM: 585 nm/610 nm) and eGFP (EX/EM: 485 nm/510 nm). Cell seeding, aspiration of medium, and addition of drugs were performed by a Hamilton StarLet automated liquid handling robot.
(§5) Inhibition of the cell growth (expressed as IC50: inhibitory concentration that reduces by 50% the growth of the cells exposed to the tested compounds) was determined from the sigmoid curve where 100 − ((ODsample − ODmedium control)/(ODcell control − ODmedium control)) × 100 values were plotted against the logarithm of compound concentrations. Curves for the data obtained on Colo205 and Colo320 cells were fitted by GraphPad Prism software (2021, Graphpad Software, version 7.00, San Diego, CA, USA) using the sigmoidal dose–response model (comparing variable and fixed slopes). From the MES-SA cell data, the IC50 values were calculated by our custom program, written by J. Sessler in C#. The p values were calculated by Student’s t-test. The IC50 values were always obtained from at least three independent experiments.

MES-SA/Dx5 = test: In vitro cytotoxicity, MES-SA/Dx5 cells (fluorescent protein readout); type: cell-based, human
Excerpt: as §1, §2, §3, §4, §5

[3] = set-up: method as in PMID 32500882; conditions: cited from earlier work
[4] = set-up: method as in earlier work; conditions: pH 7.40, cited from earlier work
Colo205 = system: Colo205; set-up: method as in PMID 32500882; conditions: 72 h exposure; cited from earlier work
Colo320 = system: Colo320; set-up: method as in PMID 32500882; conditions: cited from earlier work; for IC50: 72 h exposure; for Selectivity ratio IC50 (Colo205)/IC50 (Colo320): calculated from IC50 values taken from ref 12
[5] = pH 7.4, cited from earlier work
HSA site I (Trp-214) = biological target: T1, HSA site I (Trp-214) (Homo sapiens, UniProt P02768); set-up: method as in PMID 32500882; conditions: cited from earlier work
T1 construct: purchased Sigma-Aldrich (Darmstadt, Germany) A8763

HSA site II = biological target: T2, HSA site II (Homo sapiens, UniProt P02768); set-up: method as in PMID 32500882; conditions: cited from earlier work
T2 construct: purchased Sigma-Aldrich (Darmstadt, Germany) A8763

[6] = cited from earlier work

T1 sequence (P02768 25-609): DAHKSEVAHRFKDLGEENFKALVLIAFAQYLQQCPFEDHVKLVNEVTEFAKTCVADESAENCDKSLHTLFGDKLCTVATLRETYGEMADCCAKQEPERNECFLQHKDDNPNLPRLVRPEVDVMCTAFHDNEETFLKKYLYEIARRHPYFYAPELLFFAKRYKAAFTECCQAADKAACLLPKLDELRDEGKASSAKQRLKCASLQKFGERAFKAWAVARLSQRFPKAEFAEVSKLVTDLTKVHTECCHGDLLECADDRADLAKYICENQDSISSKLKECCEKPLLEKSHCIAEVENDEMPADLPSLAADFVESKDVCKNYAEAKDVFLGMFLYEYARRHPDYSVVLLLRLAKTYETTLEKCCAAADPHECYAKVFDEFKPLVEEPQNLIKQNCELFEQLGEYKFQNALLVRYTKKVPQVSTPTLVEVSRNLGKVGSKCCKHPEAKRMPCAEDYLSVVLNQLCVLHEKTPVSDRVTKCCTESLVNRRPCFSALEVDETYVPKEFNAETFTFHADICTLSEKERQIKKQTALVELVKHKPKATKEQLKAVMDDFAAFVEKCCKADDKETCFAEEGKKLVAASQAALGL
T2 sequence (P02768 25-609): as above

O=C(O)[C@@H]1CCCN1Cc1cc(Cl)c2cccnc2c1O [HQCl-L-Pro, reference compound]
fraction of negatively charged form [1]: 36.5%
fraction of neutral form [1]: 63.5%
solubility in water at physiological pH (S7.4) [2]: > 10 mM
IC50 (MES-SA): 23 ± 4 µM
IC50 (MES-SA/Dx5; 144 h exposure): 4.3 ± 0.1 µM
Selectivity ratio IC50 (MES-SA)/IC50 (MES-SA/Dx5) (MES-SA/Dx5; calculated from IC50 values in Table 4): 5.41
pKa (NProH+) [3]: > 11.5
pKa (OH) [3]: 7.76
log D7.4 ([4]; 4 mM chloride): +0.13 ± 0.09
IC50 (Colo205): 23 ± 3 µM
IC50 (Colo320): 9 ± 2 µM
Selectivity ratio IC50 (Colo205)/IC50 (Colo320) (Colo320): 2.75

Cc1c(C)c(C)[c-](C)c1C.O=C(O)[C@@H]1CCC[NH+]1Cc1cc(Cl)c2ccc[n+]3c2c1[O][Rh]3[Cl].[Cl-] [RhCp*-HQCl-L-Pro]
log D7.4 ([4]; 100 mM chloride): +0.10 ± 0.01
conditional stability constant logK' ([5]; calculated based on ref 12): 12.98
quenching constant logKQ' (HSA site I (Trp-214)): 5.5
DG marker displacement constant logKDG' (HSA site II): 5.6
IC50 (Colo205): 26 ± 5 µM
IC50 (Colo320): 10 ± 1 µM
Selectivity ratio IC50 (Colo205)/IC50 (Colo320) (Colo320): 2.66

Cc1c(C)c(C)[c-](C)c1C.[Cl][Rh]1[O]c2cccc3ccc[n+]1c23 [RhCp*-HQ]
conditional stability constant logK' ([5]; calculated based on ref 23): 12.76

Oc1cccc2cccnc12 [8-hydroxyquinoline]
formal potential E'1/2 of the iron complexes [6]: −323 mV vs. NHE

Oc1c(CN2CCCCC2)ccc2cccnc12 [7-(piperidin-1-ylmethyl)quinolin-8-ol]
formal potential E'1/2 of the iron complexes [6]: +21 mV vs. NHE
